According to patent US20250009714A1, “SELECTION AND TREATMENT OF SUBJECTS HAVING A CIRCULATING MYELOID CELL INFLAMMATORY PHENOTYPE” (Tranquis Therapeutics, Inc., priority 2021, published 2025):

Legend:
CD14+CD16+ monocytes = assay: Four-hour ex vivo incubation of whole blood of ALS patients, FACS of CD14+CD16+ monocytes; assay type: cell-based, human; settings: 4-hour ex vivo incubation
Procedure: Whole blood samples from patients with ALS were shipped at room temperature. The percentage of CD14+CD16+ monocytes were determined by fluorescence activated cell sorting (FACS). Briefly, whole blood was lysed with lysis buffer (BD Bioscience) for 10 minutes at 37° C. Lysed blood was centrifuged at 500 g for 10 min. Supernatant was decanted and the cell pellet washed with HBSS (Hank's balanced salt solution). Cells were centrifuged at 300 g for 10 min. Cells were resuspended in FACS buffer (PBS+2% FBS[…]). Fixed cells (100 μL) were washed with PBS. Cells (100 μL) were resuspended in PBS containing Zombie Aqua (Biolegend; 1:500 dilution). Cells were incubated in the dark at room temperature for 5 minutes. Cells were washed with FACS buffer. Cells were stained with 5 μL CD16 and 5 μL CD14 antibodies (BD Bioscience). Cells were incubated with antibodies for 30 minutes. Cells were washed with FACS buffer. Cells were resuspended in FACS buffer. Cells were acquired on a flow cytometer. FIG. 5B outlines the experimental protocol for assessing the effects of ex vivo incubation with TQS-168 on the inflammatory phenotype of circulating myeloid cells in peripheral blood samples of ALS patients. Samples were obtained from iSpecimen (Lexington, MA) and BioIVT (Westbury, NY). Blood samples were processed within 36 hours of collection and were never frozen. […]

[1] = Plasma levels of TQS-168 after a single oral dose in wild-type mice; assay type: in vivo, mouse; settings: single 50 mg/kg dose
Procedure: FIG. 2A plots plasma concentration of TQS-168 over time after a single oral dose of […] TQS-168 in mice. FIG. 2B is a timeline representative of the protocol of the SOD1 mouse study. Plasma levels of TQS-168 in wild-type mice were analyzed subsequently to a single 50 mg/kg dose of TQS-168.

[2] = test system: plasma cytokines (IL-6, IL-10, TNFα, interferon gamma, CXCL5, etc.); assay: Plasma cytokines in SOD1 mice (48-plex Procarta panel); assay type: in vivo, mouse; settings: 50 mg/kg oral gavage every 3 days from Day 70 until day of euthanasia
Procedure: (§1) 60-day old transgenic mice overexpressing the human SOD1-G93A ALS-causing mutation (stock #002726) and wild-type mice (WT; C57BL/6J) were obtained from the Jackson Labs. Oral dosing by gavage started at 70 days of age. SOD1 mice received either TQS-168 50 mg/kg every 3 days or vehicle (same volume and frequency). The staff that dosed and assessed the mice were blinded to treatment allocation. Blood samples were collected in EDTA tubes at 2 time points: 90 days of age and time of euthanasia. Blood samples were processed for flow cytometry and plasma cytokine analysis. Flow cytometry methods employed are the same as those employed in Example 1 and Example 2.
Blood samples were collected from SOD1 mice at Day 90 and time of euthanasia. Plasma samples were assayed using the 48-plex Procarta panel (Thermo Fisher).

[3] = test system: Ppargc1α (PGC-1α) expression; settings: direct molecular binding partner unknown; cited from earlier work
[4] = test system: Ly6C^hi inflammatory monocytes in SOD1-G93A mice; assay: Fraction of inflammatory monocytes in SOD1 mice (flow cytometry of blood); assay type: in vivo, mouse; settings: 50 mg/kg oral gavage every 3 days from Day 70 until Day 90
Excerpt: as §1, with “The SOD1-G93A transgenic mouse has proven to be a useful tool in the study of ALS. A large majority of […] in the Superoxide dismutase 1 gene. SOD1-G93A mice express human SOD1 with the G93A mutation under control of the human SOD1 promoter. The mice show a phenotype similar to Amyotrophic Lateral Sclerosis in humans. 60-day” for “60-day”

SOD1-G93A mice [5] = assay: Survival in SOD1 mice (time from birth to euthanasia, righting reflex); assay type: in vivo, mouse
Procedure: 60-day old transgenic mice overexpressing the human SOD1-G93A ALS-causing mutation (stock #002726) were obtained from the Jackson Labs. Dosing started at 70 days of age. SOD1 mice received either TQS-168 50 mg/kg every 3 days or vehicle (same volume and frequency) by oral gavage. The righting reflex (ability to turn over when place on their backs) was assessed every 3 days when mice were <110 days old and every day after age 110 days. Mice were euthanized if they could not right themselves in 20 seconds after being placed onto their back. Time from birth to euthanasia was calculated for each mouse and compared in the two groups.

[6] = test system: Ly6C^hi inflammatory monocytes; assay: Ex vivo LPS stimulation of wild-type mouse whole blood, FACS of Ly6C^hi cells; assay type: cell-based; settings: LPS stimulated, increasing concentrations of TQS-168, 5 hours at 37° C.
Procedure: Lipopolysaccharide (LPS) was used to induce circulating myeloid cells from wild type mice to adopt an inflammatory phenotype in vitro. […] As schematized in FIG. 1C, blood samples from wild-type mice were collected in EDTA tubes and stimulated with LPS. Whole blood was incubated at 37° C. with increasing concentrations of TQS-168 for 5 hours. Whole blood was lysed with lysis buffer from BD Bioscience for 10 minutes at 37C. Lysed blood was centrifuged at 500 g for 10 minutes. The supernatant was decanted, and cell pellet washed with Hank's balanced salt solution (HBSS). The cells were then centrifuged at 300 g for 10 minutes. They were subsequently resuspended in 2 mM EDTA FACS buffer. Fixed cells (100 μL) were washed with PBS. The cells (100 μL) were resuspended in PBS containing Zombie Aqua solution (Biolegend) at a 1:500 dilution. The cells were incubated in the dark at room temperature for 5 minutes. The cells were then washed with FACS buffer. The cells were stained with Cd11b, Ly6G, and Ly6C antibodies (BD Bioscience). The cells were then incubated with antibodies for 30 minutes. They were then washed with FACS buffer and then resuspended also in FACS buffer. Finally, the cells were acquired on flow cytometer.

SOD1-G93A mice [7] = settings: SOD1 mouse model; cited from earlier work

Compound	percentage of CD14+CD16+ monocytes after incubation (CD14+CD16+ monocytes; 30 μM, from 1.5% without compound)	change in percentage of intermediate (CD14+CD16+) monocytes with increasing concentrations (CD14+CD16+ monocytes)	oral bioavailability (plasma levels) [1]	increase in plasma cytokines from Day 90 to day of euthanasia [2]	effect on Ppargc1α (PGC-1α) expression [3]	increase in circulating Ly6C^hi monocytes in SOD1 mice [4]	survival compared with vehicle (SOD1-G93A mice [5]; 50 mg/kg oral gavage every 3 days)	median survival (SOD1-G93A mice [5]; 50 mg/kg oral gavage every 3 days from 70 days of age) [days]	difference in median survival versus vehicle (SOD1-G93A mice [5]; 50 mg/kg oral gavage every 3 days, vehicle 129) [days]	LPS-induced increase in percentage of Ly6C^hi inflammatory monocytes [6]	survival benefit in the SOD1 model (approved ALS treatments) (SOD1-G93A mice [7])
CC(C)(C)c1ccc(-c2nc3ccccc3[nH]2)cc1 [TQS-168, 2-(4-tert-butylphenyl)-1H-benzimidazole]	less than 1%	dose-dependent decrease	orally bioavailable	inhibited this increase in plasma cytokines	activator of Ppargc1α (PGC-1α) expression	inhibited the increase in circulating Ly6C^hi monocytes	survived longer	135	6	inhibits the LPS-induced increase in Ly6C^hi monocytes	
CC1=NN(c2ccccc2)C(=O)C1 [edaravone]											failed to display survival benefits
